Experimental data taken from US20140235774A1, “FLUORESCENT COMPOUND, METHOD FOR PRODUCING THE SAME, AND FLUORESCENT RESIN COMPOSITION” (Shin-Etsu Chemical Co., Ltd., priority 2013, published 2014).
In brackets after ≈: the same amount, converted by molar mass.

Legend:
Type in all cases: physicochemical
[1] = Solubility in transparent silicone resin SIM-360 base compound (portion-wise addition until transparent); settings: for solubility in the SIM-360 base compound: room temperature, with stirring
Procedure: Into a glass vial, 10.1 mg of Compound 1 produced in Example 1 was weighed and added with a transparent silicone resin, the SIM-360 base compound (produced by Shin-Etsu Chemical Co., Ltd.) portion-wise at room temperature with stirring. Dissolution was determined when the solution turned transparent. The solubility was calculated to be 1 mmol/L. To this mixture, 10% by mass of a curing agent was added on the basis of the base compound and mixed. After defoaming, the mixture was heated at 150° C. for 30 minutes to be cured, giving a fluorescent silicone resin composition. It was possible to change the concentration of Compound 1 freely as long as the concentration was less than or equal to the above-described concentration.

[2] = Fluorescent spectrum in solvent
Procedure: (§1) The ultraviolet-visible absorption spectrum and the fluorescent spectrum of Compound 1 were measured in ethanol. The longest absorption maximum wavelength was 359 nm, the molar absorbance coefficient was 6.50×10^4, and the maximum fluorescent wavelength was 410 nm (excitation wavelength: 359 nm).
(§2) The ultraviolet-visible absorption spectrum and the fluorescent spectrum of Compound 2 were measured in ethanol. The longest absorption maximum wavelength was 359 nm, the molar absorbance coefficient was 7.88×10^4, and the maximum fluorescent wavelength was 410 nm (excitation wavelength: 359 nm).
as §1, with “3” for “1”, “tetrahydrofuran.” for “ethanol.”, “363” for “359”, “2.65×10^4,” for “6.50×10^4,”, “413” for “410”
as §1, with “4” for “1”, “tetrahydrofuran.” for “ethanol.”, “363” for “359”, “2.83×10^4,” for “6.50×10^4,”, “413” for “410”, “363 nm)” for “359 nm).”

[3] = Ultraviolet-visible absorption spectrum in solvent
Procedure: as §1, §2
as §1, with “3” for “1”, “tetrahydrofuran.” for “ethanol.”, “363” for “359”, “2.65×10^4,” for “6.50×10^4,”, “413” for “410”
as §1, with “4” for “1”, “tetrahydrofuran.” for “ethanol.”, “363” for “359”, “2.83×10^4,” for “6.50×10^4,”, “413” for “410”, “363 nm)” for “359 nm).”

[4] = in ethanol, excitation wavelength 359 nm
[5] = in tetrahydrofuran, excitation wavelength 363 nm

Structure (SMILES)	solubility in the SIM-360 base compound [1]	maximum fluorescent wavelength [2, 4]	longest absorption maximum wavelength ([3]; in ethanol)	molar absorbance coefficient ([3]; in ethanol)	solubility in the SIM-360 base compound (result in words) ([1]; measured as in Example 6)	maximum fluorescent wavelength [2, 5]	longest absorption maximum wavelength ([3]; in tetrahydrofuran)	molar absorbance coefficient ([3]; in tetrahydrofuran)
C[Si](C)(C)O[Si](C)(O[Si](C)(C)C)c1cccc(N(c2ccccc2)c2ccc(-c3ccc(N(c4ccccc4)c4ccc(-c5ccc(N(c6ccccc6)c6ccc(-c7ccc(N(c8ccccc8)c8cccc([Si](C)(O[Si](C)(C)C)O[Si](C)(C)C)c8)cc7)cc6)cc5)cc4)cc3)cc2)c1 [Compound 2, N,N′-bis[phenyl-3-(1-trimethylsoxy-1,3,3,3-tetramethyldisiloxan-1-yl)phenylaminobiphenyl-4′-yl]-N,N-diphenylbenzidine]	500 µM (≈ 708 µg/mL)	410 nm	359 nm	7.88×10^4				
Cc1cccc(N(c2ccc(-c3ccc(N(c4ccccc4)c4ccc(-c5ccc(N(c6ccccc6)c6ccc(-c7ccc(N(c8cccc(C)c8)c8cccc(C)c8)cc7)cc6)cc5)cc4)cc3)cc2)c2cccc(C)c2)c1 [Compound 6, reference compound]					not dissolved at all			
C[Si](C)(C)O[Si](C)(O[Si](C)(C)C)c1cccc(N(c2ccc(-c3ccc(N(c4ccccc4)c4ccc(-c5ccc(N(c6ccccc6)c6ccccc6)cc5)cc4)cc3)cc2)c2ccc(-c3ccc(N(c4ccccc4)c4ccc(-c5ccc(N(c6ccccc6)c6ccccc6)cc5)cc4)cc3)cc2)c1 [Compound 3, N,N-bis[4′-(N′-phenyl-N′-4′-diphenylaminobiphenyl-4-yl)biphenyl-4-yl]-3-(1-trimethylsiloxy-1,3,3,3-tetramethyldisiloxan-1-yl)aniline]	100 µM (≈ 144 µg/mL)					413 nm	363 nm	2.65×10^4
Cc1ccc(N(c2ccc(C)cc2)c2ccc(-c3ccc(N(c4ccc(-c5ccc(N(c6ccc(C)cc6)c6ccc(C)cc6)cc5)cc4)c4cccc([Si](C)(O[Si](C)(C)C)O[Si](C)(C)C)c4)cc3)cc2)cc1 [Compound 1, N,N-bis[4′-(N′,N′-di-4-tolylamino)biphenyl-4-yl]-3-(1-trimethylsiloxy-1,3,3,3-tetramethyldisiloxan-1-yl)aniline]	1000 µM (≈ 1010 µg/mL)	410 nm	359 nm	6.50×10^4				
C[Si](C)(C)O[Si](C)(C)c1cccc(N(c2ccc(-c3ccc(N(c4ccccc4)c4ccc(-c5ccc(N(c6ccccc6)c6ccccc6)cc5)cc4)cc3)cc2)c2ccc(-c3ccc(N(c4ccccc4)c4ccc(-c5ccc(N(c6ccccc6)c6ccccc6)cc5)cc4)cc3)cc2)c1 [Compound 4, N,N-bis[4′-(N′-phenyl-N′-4′-diphenylaminobiphenyl-4-yl)biphenyl-4-yl]-3-(pentamethyldisiloxan-1-yl)aniline]	100 µM (≈ 136 µg/mL)					413 nm	363 nm	2.83×10^4
